According to US20110123490A1, “HE[…] COMPOUNDS” (priority 2009, published 2011):

How the values were obtained:
[1] = target: T1, HCV polymerase (NS5B570n-Con1) (Hepatitis C virus genotype 1b, UniProt Q9WMX2); experiment: HCV NS5B RNA polymerase activity assay (incorporation of radiolabeled nucleotide into RNA); format: biochemical, HCV Con1 strain
T1 construct: contains a 21 amino acid deletion at the C-terminus relative to the full-length HCV polymerase; 6-histidine (N); made in house; host or cells: E. coli BL21(DE) pLysS, plasmid pET17b
Method: The enzymatic activity of HCV polymerase (NS5B570n-Con1) was measured as the incorporation of radiolabeled nucleotide monophosphates into acid insoluble RNA products. Unincorporated radiolabeled substrate was removed by filtration and scintillant was added to the washed and dried filter plate containing radiolabeled RNA product. The amount of RNA product generated by NS5B570-Con1 at the end of the reaction was directly proportional to the amount of light emitted by the scintillant.
The N-terminal 6-histidine tagged HCV polymerase, derived from HCV Con1 strain, genotype 1b (NS5B570n-Con1) contains a 21 amino acid deletion at the C-terminus relative to the full-length HCV polymerase and was purified from E. coli strain BL21(DE) pLysS. The construct, containing the coding sequence of HCV NS5B Con1 (GenBank accession number AJ242654) was inserted into the plasmid construct pET17b, downstream of a T7 promoter expression cassette and transformed into E. coli. A single colony was grown overnight as a starter culture and later used inoculate 10 L of LB media supplemented with 100 μg/mL ampicillin at 37° C. Protein expression was induced by the addition of 0.25 mM isopropyl-β-D-thiogalactopyranoside (IPTG) when optical density at […] of the culture was between 0.6 and 0.8 and cells were harvested after 16 to 18 h at 30° C. NS5B570n-Con1 was purified to homogeneity using a three-step protocol including subsequent column chromatography on Ni-NTA, SP-Sepharose HP and Superdex 75 resins.
Each 50 μL enzymatic reaction contained 20 nM RNA template derived from the complementary sequence of the Internal Ribosome Entry Site (cIRES), 20 nM NS5B570n-Con1 enzyme, 0.5 μCi of tritiated UTP (Perkin Elmer catalog no. TRK-412; specific activity: 30 to 60 Ci/mmol; stock solution concentration from 7.5×10^−5 M to 20.6×10^−6 M), 1 μM each ATP, CTP, and GTP, 40 mM Tris-HCl pH 8.0, 40 mM NaCl, 4 mM DTT (dithiothreitol), 4 mM MgCl2, and 5 μL of compound serial diluted in DMSO. Reaction mixtures were assembled in 96-well filter plates (cat #MADVN0B, Millipore Co.) and incubated for 2 h at 30° C. Reactions were stopped by addition of 10% final (v/v) trichloroacetic acid and incubated for 40 min at 4° C. […]
The amount of light emitted from the scintillant was converted to counts per minute (CPM) on a Topcount® plate reader (Perkin-Elmer, Energy Range: Low, Efficiency Mode Normal, Count Time: 1 min, Background Subtract: none, Cross talk reduction: Off).
Data was analyzed in Excel® (Microsoft®) and ActivityBase® (Idbs®). […] All data was expressed as a percentage of the positive control. […]

in vitro = conditions: human
[2] = tested on: HCV replicon cells (2209-23), genotype 1b replicon in Huh7 cells; experiment: HCV replicon assay (Renilla luciferase reporter); format: cell-based, HCV genotype 1b; conditions: Hepatitis C virus, Huh-7, 72 h; 2209-23 cells, three days incubation, luciferase readout

SMILES | IC50 [1] | CC50 (in vitro) | IC50 [2]
CC1(C)COc2c(-n3ccc(=O)[nH]c3=O)cc(-c3ccc4cc(NS(C)(=O)=O)ccc4c3)cc21 [Compound I-1, N-{6-[7-(2,4-Dioxo-3,4-dihydro-2H-pyrimidin-1-yl)-3,3-dimethyl-2,3-dihydro-benzofuran-5-yl]-naphthalen-2-yl}-methanesulfonamide] | 0.5 nM | – | –
COc1c(-c2ccc3cc(NS(C)(=O)=O)ccc3c2)cc(-n2ccc(=O)[nH]c2=O)c2c1C(C)(C)CO2 [Compound I-2, N-{6-[7-(2,4-Dioxo-3,4-dihydro-2H-pyrimidin-1-yl)-4-methoxy-3,3-dimethyl-2,3-dihydro-benzofuran-5-yl]-naphthalen-2-yl}-methanesulfonamide] | 0.6 nM | 12 µM | 5.2 nM
COc1c(-c2ccc3cc(NS(C)(=O)=O)ccc3c2)cc(N2CCC(=O)NC2=O)c2c1C(C)(C)CO2 [Compound I-3, N-{6-[7-(2,4-Dioxo-tetrahydro-pyrimidin-1-yl)-4-methoxy-3,3-dimethyl-2,3-dihydro-benzofuran-5-yl]-naphthalen-2-yl}-methanesulfonamide] | 4.7 nM | – | –
CC1(C)COc2c(-c3ccc4cc(NS(C)(=O)=O)ccc4c3)cc(-n3ccc(=O)[nH]c3=O)cc21 [Compound I-4, N-{6-[5-(2,4-Dioxo-3,4-dihydro-2H-pyrimidin-1-yl)-3,3-dimethyl-2,3-dihydro-benzofuran-7-yl]-naphthalen-2-yl}-methanesulfonamide] | 0.9 nM | 2.7 µM | 106 nM
